Assay results: patent US7414036B2, “Compounds useful as A3 adenosine receptor agonists” (Muscagen Limited, priority 2002, dated 2008)
Values joined by “and” are separate entries in the source; they are usually repeats but may differ in a detail not shown here. Identical values can stand only once. Blank lines part the entries; values can stand above or below the molecule they belong to.

Legend:
[1] = system: A2 receptor; assay: A2 receptor functional activity, relaxation of isolated trachea pre-contracted with carbachol; parameters: species or system guinea-pig; details: for IC25, relaxation at A2 receptors of guinea-pig trachea: concentration for 25% of the maximum response to NECA, trachea precontracted with carbachol (100 nM)
[2] = Partition coefficient, propylene glycol dipelargonate (PGDP)/water model; format: physicochemical; details: 21.2 °C; for Log P(s): partition solvent propylene glycol dipelargonate (PGDP)/water, neutral species
Source text: The partition measurements were based on a long chain ester (propylene glycol dipelargonate-PGDP)/water model.

[3] = system: guinea-pig isolated left atria; assay: Myocardial contractile dysfunction (stunning) after simulated ischaemia of isolated atria
Description: The following experiment was carried out to evaluate the efficacy of compound 6 in protecting against myocardial contractile dysfunction (stunning) after simulated ischaemia of isolated atria.
Guinea-pig isolated left atria were set up in tissue baths containing Krebs-bicarbonate solution gassed with 5% CO2 in oxygen at 37° C. and electrically paced at 2 Hz with pulses of threshold voltage +50% and 5 ms pulse width. Developed tension was recorded. After equilibrium, they were exposed to 30 min of simulated ischaemia by gassing with 5% CO2 in nitrogen and removing the glucose substrate which was replaced with choline chloride (7 mM) to maintain isotonicity. Pacing was continued throughout. After 30 min, the tissues were reoxygenated and glucose was returned. […] This partial recovery was the index of myocardial stunning. […] This timing was to simulate administration at the time of reperfusion induced by thrombolyic therapy following myocardial infarction.

[4] = pKa determination with co-solvent titrations; format: physicochemical; details: read-out: pKa (s)
[5] = molecular target: T1, A1 receptor (Cavia porcellus, UniProt P47745); assay: A1 receptor functional activity, negative inotropic response of isolated paced left atria; parameters: species or system guinea-pig; details: for IC25, negative inotropic action at A1 receptors of guinea-pig atria: concentration for 25% of the maximum response to NECA, cumulative concentration-response curves
T1 construct: from tissue; host or cells: guinea-pig isolated paced left atria
T1 sequence (P47745 1-326): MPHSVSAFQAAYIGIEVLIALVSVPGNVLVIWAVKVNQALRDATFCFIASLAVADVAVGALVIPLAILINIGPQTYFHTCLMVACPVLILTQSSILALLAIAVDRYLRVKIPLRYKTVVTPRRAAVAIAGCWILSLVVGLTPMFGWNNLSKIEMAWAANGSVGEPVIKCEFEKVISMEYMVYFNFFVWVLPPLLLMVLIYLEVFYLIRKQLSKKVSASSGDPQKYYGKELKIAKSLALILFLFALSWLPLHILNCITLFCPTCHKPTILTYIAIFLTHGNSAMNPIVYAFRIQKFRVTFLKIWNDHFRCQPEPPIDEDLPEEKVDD

[6] = molecular target: T2, human A3 receptors (Homo sapiens, UniProt P0DMS8); assay: A3 receptor radioligand binding, displacement of [125I]-AB-MECA; details: for % Displacement of [125I]-AB-MECA: human A3 receptors in CHO cells; for IC50: displacement of [125I]-AB-MECA (0.3 nM), human A3 receptors expressed in CHO cells, membranes, 60 min room temperature
T2 construct: expressed in transfected cells; host or cells: CHO cells (membrane preparations)
T2 sequence (P0DMS8 1-318): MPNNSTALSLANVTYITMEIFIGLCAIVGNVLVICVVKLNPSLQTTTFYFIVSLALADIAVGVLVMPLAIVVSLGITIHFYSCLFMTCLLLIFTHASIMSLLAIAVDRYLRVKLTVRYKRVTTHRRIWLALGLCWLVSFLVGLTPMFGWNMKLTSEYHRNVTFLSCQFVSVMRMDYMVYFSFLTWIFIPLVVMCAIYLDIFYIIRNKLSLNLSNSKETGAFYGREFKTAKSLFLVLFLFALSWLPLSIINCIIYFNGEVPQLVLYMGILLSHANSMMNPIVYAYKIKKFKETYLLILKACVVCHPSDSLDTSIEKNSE

[7] = e.g. from about 70 mm Hg to about 90 mm Hg; cited from earlier work
[8] = empiric evidence; cited from earlier work

Molecule: CNC(=O)[C@H]1O[C@@H](n2cnc3c(NCc4cc(I)c5oc(N(C)C)nc5c4)ncnc32)C(O)C1O (stereo partly shown) [Compound 6, N^6-[(2-dimethylamino-7-iodo-1,3-benzoxazol-5-yl)-methyl]-adenosine-5′-N-methyluronamide]
IC25, relaxation at A2 receptors of guinea-pig trachea [1]: 9070 nM | Selectivity for A3 receptors (radioligand binding) against A2 receptors (tracheal relaxation) ([1]; ratio of tracheal functional value to A3 binding IC50): 5.6×10^6 | Log D ([2]; partition solvent PGDP/water): 1.483 | Log P(s) [2]: 1.484 | Log P(s) ([2]; listed as compound 10): 1.48±0.03 | Maximum developed contractile tension (%), Post-ischaemic, Mean ([3]; Compound 6 5 × 10^−9 M at reoxygenation, % of pre-ischaemic value, n=3): 84.0% | Maximum developed contractile tension (%), Post-ischaemic, Mean ([3]; Compound 6 5 × 10^−9 M at reoxygenation, % of pre-ischaemic value, n=3, listed as compound 6): 84.0±18.0% | Maximum developed contractile tension, Post-ischaemic ([3]; Compound 6 5 × 10^−9 M introduced at reoxygenation after 30 min simulated ischaemia, single experiments): 0.72 g and 0.42 g and 0.40 g | pKa [4]: 3.66 ± 0.03 | IC25, negative inotropic action at A1 receptors of guinea-pig atria [5]: 1000 nM | Selectivity for A3 receptors (radioligand binding) against A1 receptors (negative inotropy) ([5]; ratio of atrial functional value to A3 binding IC50): 6.25×10^6 | IC50 ([5]; read-out: IC50, negative inotropic action at A1 receptors of guinea-pig atria): 10000 nM | Potency for binding to the human A3 receptor (in words) [6]: picomolar potency | % Displacement of [125I]-AB-MECA ([6]; Concentration (Log M) −7): 94% | % Displacement of [125I]-AB-MECA ([6]; Concentration (Log M) −9): 79% | % Displacement of [125I]-AB-MECA ([6]; Concentration (Log M) −10): 73% | % Displacement of [125I]-AB-MECA ([6]; Concentration (Log M) −11): 68% | % Displacement of [125I]-AB-MECA ([6]; Concentration (Log M) −12): 47% | A3 binding potency compared with IB-MECA ([6]; comparison of IC50 values of Table 1): approximately two orders of magnitude more potent | IC50 [6]: 0.0016 nM

Molecule: CNC(=O)[C@H]1O[C@@H](n2cnc3c(NCc4cccc(I)c4)ncnc32)[C@H](O)[C@@H]1O [IB-MECA]
Maximum developed contractile tension (%), Post-ischaemic, Mean ([3]; IB-MECA 3 × 10^−7 M at reoxygenation, % of pre-ischaemic value, 6 experiments): 66.5±6.5% and 66.5% | Maximum developed contractile tension (%), Post-ischaemic ([3]; IB-MECA 3 × 10^−7 M at reoxygenation, % of pre-ischaemic value, single experiments): 83.3% and 45.5% and 60% and 63% and 87.5% | Increase in basal or systemic blood pressure [7]: 10-30%

Molecule: CCNC(=O)[C@H]1O[C@@H](n2cnc3c(N)ncnc32)[C@H](O)[C@@H]1O [NECA, N-ethylcarboxamidoadenosine, reference compound]
IC25, relaxation at A2 receptors of guinea-pig trachea [1]: 940 nM | IC25, negative inotropic action at A1 receptors of guinea-pig atria [5]: 52 nM

Molecule: CC(C)NCC(O)COc1cccc2ccccc12 (stereo not shown) [propranolol]
Effective partition after allowing for protonation, log10 PGDP/H2O scale [8]: ~0.8

Molecule: N^6-(4-iodo-2-picolyl)-adenosine-5′-N-methyluronamide [Compound 2]
IC50 [6]: 0.45 nM

The next lines start with the values.

IC50 [6]: 2.2 nM
Molecule: CNC(=O)[C@H]1O[C@@H](n2cnc3c(NCc4cc(C)ccn4)ncnc32)C(O)C1O (stereo partly shown) [Compound 1, N^6-(4-methyl-2-picolyl)-adenosine-5′-N-methyluronamide]

IC50 [6]: 21 to 80 nM
Molecule: CNC(=O)[C@H]1O[C@@H](n2cnc3c(NCc4cc(I)c5oc(N(C)C)nc5c4)nc(C#Cc4ccccc4)nc32)[C@H](O)[C@@H]1O [Compound 8, N^6-[(2-dimethylamino-7-iodo-1,3-benzoxazol-5-yl)-methyl]-2-(2-phenyl-1-ethynyl)-adenosine-5′-N-methyluronamide]

melting point: 226 to 228 °C | IC50 [6]: 0.4 nM
Molecule: CNC(=O)[C@H]1O[C@@H](n2cnc3c(NCc4cccc(C(C)=O)n4)ncnc32)C(O)C1O (stereo partly shown) [Compound 4, N^6-(6-acetyl-2-picolyl)adenosine-5′-N-methyluronamide]

melting point: 84 to 86 °C | IC50 [6]: 6 nM
Molecule: CNC(=O)[C@H]1O[C@@H](n2cnc3c(NCc4ccccn4)ncnc32)C(O)C1O (stereo partly shown) [Compound 3, N^6-(2-picolyl)adenosine-5′-N-methyluronamide]

pKa [4]: 3.61 | melting point: 239 to 241 °C | IC50 [6]: 450 nM
Molecule: CNC(=O)[C@H]1O[C@@H](n2cnc3c(NCc4ccc5oc(N(C)C)nc5c4)ncnc32)C(O)C1O (stereo partly shown) [Compound 7, N^6-[(2-Dimethylamino-1,3-benzoxazol-5-yl)-methyl]-adenosine-5′-N-methyluronamide]

IC50 [6]: 31 to 45 nM
Molecule: CNC(=O)[C@H]1O[C@@H](n2cnc3c(NCc4cc(I)ccn4)nc(C#Cc4ccccc4)nc32)[C@H](O)[C@@H]1O [Compound 5, N^6-(4-iodo-2-picolyl)-2-(2-phenyl-1-ethynyl)-adenosine-5′-N-methyluronamide]
